From PubChem BioAssay (NCI) come the findings set out here.

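Values below derive from 48-hour exposures of cells grown in 96-well plates, with endpoints linearly interpolated between the two concentrations bracketing the appropriate inhibition level. Definition used: TGI = concentration required for complete inhibition of growth.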

One assay has as its system SF-295 CNS. The assay is described as follows: inhibition of tumour cell growth, NCI panel, 48 h.
Turning to `COc1ccc(NC(=O)N(C)CC2(O)CCC(C(C)(C)C)CC2)cc1` (configuration not stated), the TGI was 91.7 µM.
`CN(C)CCNC(=O)c1ccc2nc3c(nc2c1)C(=O)c1ccccc1-3` had a TGI of more than 100 µM.
The same measure, in the same setting: the same measure for `C/C(=N/NC(=S)Nc1ccc(Cl)cc1)c1cccc(/C(C)=N\NC(=S)Nc2ccc(Cl)cc2)n1`: 29.6 µM.
For the compound `COC(=O)C1(C(=O)OC)C/C(C)=C(/C)SCCCS1`, the TGI is more than 100 µM.
As for `CC1(C)CC(=O)C(C=NC(=O)c2ccncc2)=C(O)C1`, the TGI is more than 100 µM.

The next assay relates to OVCAR-3 ovarian. Put plainly: inhibition of tumour cell growth, NCI panel, 48 h.
In turn, `S=c1[nH]c(=S)c2nnn(-c3ccccc3)c2[nH]1` displayed a TGI of more than 100 µM.
On the same count and under the same terms, the same measure for `CC(C)CC(NC(=O)C(CI)Cc1ccccc1)C(=O)Nc1ccccc1` (configuration not stated): more than 100 µM; for `CC(CO)CCNc1ncnc2c1ncn2CCC(=O)OC(C)(C)C` (configuration not stated): more than 100 µM.
Compound `COc1ccc(-n2cnn3c(=O)c4cn[nH]c4nc23)cc1` displayed a TGI of more than 10 µM.
Still for that read-out and setting: to `CC(C)(C)OC(=O)NC(Cc1ccc(OC(C)(C)C)cc1)C(=O)N[C@H]1CCC[C@H]1C(=O)NC(Cc1ccccc1)C(=O)N1CCCC1C(N)=O` (some centres not stated) belongs more than 100 µM.
The same measure, in the same setting: to `c1ccc(NN=C(c2ccccn2)c2ccccn2)nc1` belongs more than 100 µM; to `N#Cc1[nH]c(=S)[nH]c1N`, more than 100 µM; to `N#CC1=C(Nc2ccccc2)SC=C(c2ccccc2)NC1=NCc1ccccc1`, more than 100 µM.
`COC1=CC2C(c3cc4ccccc4n3S(=O)(=O)c3ccccc3)CC1CN2C(=O)OCc1ccccc1` (configuration not stated) displayed a TGI of more than 100 µM.
`CNC(=S)N=Nc1c(O)n(CN2CCOCC2)c2ccc([N+](=O)[O-])cc12`: the TGI came out at 34.5 µM.
In turn, `COc1ccc(-c2csc(Cc3nc4ccccc4c(=O)n3-c3ccc(Cl)cc3)n2)cc1` registered a TGI of more than 100 µM.
`COc1ccc(NC(=O)N(C)CC2(O)CCC(C(C)(C)C)CC2)cc1` (configuration not stated) registered a TGI of 81.4 µM.
For `CN(C)CCNC(=O)c1ccc2nc3c(nc2c1)C(=O)c1ccccc1-3`, the TGI is more than 100 µM.
In the case of `C/C(=N/NC(=S)Nc1ccc(Cl)cc1)c1cccc(/C(C)=N\NC(=S)Nc2ccc(Cl)cc2)n1`, the TGI turned out to be 47.1 µM.
The compound `COC(=O)C1(C(=O)OC)C/C(C)=C(/C)SCCCS1` registered a TGI of more than 100 µM.
On to `CC1(C)CC(=O)C(C=NC(=O)c2ccncc2)=C(O)C1`, for which the TGI is more than 100 µM.

Another assay has as its system MALME-3M melanoma. The assay is described as follows: inhibition of tumour cell growth, NCI panel, 48 h.
Compound `S=c1[nH]c(=S)c2nnn(-c3ccccc3)c2[nH]1` displayed a TGI of more than 100 µM.
For the compound `CC(C)CC(NC(=O)C(CI)Cc1ccccc1)C(=O)Nc1ccccc1` (configuration not stated), the TGI is more than 100 µM.
For `CC(CO)CCNc1ncnc2c1ncn2CCC(=O)OC(C)(C)C` (configuration not stated), the TGI was more than 100 µM.
Regarding `COc1ccc(-n2cnn3c(=O)c4cn[nH]c4nc23)cc1`, the TGI was more than 10 µM.
The compound `CC(C)(C)OC(=O)NC(Cc1ccc(OC(C)(C)C)cc1)C(=O)N[C@H]1CCC[C@H]1C(=O)NC(Cc1ccccc1)C(=O)N1CCCC1C(N)=O` (some centres not stated) had a TGI of more than 100 µM.
On the same count and under the same terms, the same measure for `c1ccc(NN=C(c2ccccn2)c2ccccn2)nc1`: 26.1 µM.
Regarding `N#Cc1[nH]c(=S)[nH]c1N`, the TGI was more than 100 µM.
In turn, `N#CC1=C(Nc2ccccc2)SC=C(c2ccccc2)NC1=NCc1ccccc1` had a TGI of more than 100 µM.
The same measure, in the same setting: to `COC1=CC2C(c3cc4ccccc4n3S(=O)(=O)c3ccccc3)CC1CN2C(=O)OCc1ccccc1` (configuration not stated) belongs 61 µM; to `CNC(=S)N=Nc1c(O)n(CN2CCOCC2)c2ccc([N+](=O)[O-])cc12`, 43.3 µM; to `COc1ccc(-c2csc(Cc3nc4ccccc4c(=O)n3-c3ccc(Cl)cc3)n2)cc1`, more than 100 µM.
In the case of `COc1ccc(NC(=O)N(C)CC2(O)CCC(C(C)(C)C)CC2)cc1` (configuration not stated), the TGI was determined as 99.3 µM.
On the same count and under the same terms, the same measure for `CN(C)CCNC(=O)c1ccc2nc3c(nc2c1)C(=O)c1ccccc1-3`: 82.3 µM.
Same read-out and setting: to `C/C(=N/NC(=S)Nc1ccc(Cl)cc1)c1cccc(/C(C)=N\NC(=S)Nc2ccc(Cl)cc2)n1` belongs 36 µM; to `COC(=O)C1(C(=O)OC)C/C(C)=C(/C)SCCCS1`, more than 100 µM.

The subject of another assay is OVCAR-8 ovarian. The assay is described as follows: inhibition of tumour cell growth, NCI panel, 48 h.
`S=c1[nH]c(=S)c2nnn(-c3ccccc3)c2[nH]1` showed a TGI of more than 100 µM.
`CC(C)CC(NC(=O)C(CI)Cc1ccccc1)C(=O)Nc1ccccc1` (configuration not stated) displayed a TGI of more than 100 µM.
Still for that read-out and setting: to `CC(CO)CCNc1ncnc2c1ncn2CCC(=O)OC(C)(C)C` (configuration not stated) belongs more than 100 µM; to `COc1ccc(-n2cnn3c(=O)c4cn[nH]c4nc23)cc1`, more than 10 µM.
On to `CC(C)(C)OC(=O)NC(Cc1ccc(OC(C)(C)C)cc1)C(=O)N[C@H]1CCC[C@H]1C(=O)NC(Cc1ccccc1)C(=O)N1CCCC1C(N)=O` (some centres not stated), for which the TGI is more than 100 µM.
With `c1ccc(NN=C(c2ccccn2)c2ccccn2)nc1`, the TGI is more than 100 µM.
On the same count and under the same terms, to `N#Cc1[nH]c(=S)[nH]c1N` belongs more than 100 µM.
Compound `N#CC1=C(Nc2ccccc2)SC=C(c2ccccc2)NC1=NCc1ccccc1` had a TGI of more than 100 µM.
Consider `COC1=CC2C(c3cc4ccccc4n3S(=O)(=O)c3ccccc3)CC1CN2C(=O)OCc1ccccc1` (configuration not stated), for which the TGI is more than 100 µM.
Still for that read-out and setting: the same measure for `COc1ccc(-c2csc(Cc3nc4ccccc4c(=O)n3-c3ccc(Cl)cc3)n2)cc1`: more than 100 µM; for `COc1ccc(NC(=O)N(C)CC2(O)CCC(C(C)(C)C)CC2)cc1` (configuration not stated): more than 100 µM.
The compound `CN(C)CCNC(=O)c1ccc2nc3c(nc2c1)C(=O)c1ccccc1-3` had a TGI of more than 100 µM.
As to `C/C(=N/NC(=S)Nc1ccc(Cl)cc1)c1cccc(/C(C)=N\NC(=S)Nc2ccc(Cl)cc2)n1`, the TGI amounted to 8.69 µM.
Still for that read-out and setting: the same measure for `COC(=O)C1(C(=O)OC)C/C(C)=C(/C)SCCCS1`: more than 100 µM; for `CC1(C)CC(=O)C(C=NC(=O)c2ccncc2)=C(O)C1`: more than 100 µM.

In the next assay the test system is ACHN renal. Put plainly: inhibition of tumour cell growth, NCI panel, 48 h.
With `S=c1[nH]c(=S)c2nnn(-c3ccccc3)c2[nH]1`, the TGI was more than 100 µM.
Consider `CC(C)CC(NC(=O)C(CI)Cc1ccccc1)C(=O)Nc1ccccc1` (configuration not stated), for which the TGI was more than 100 µM.
Same read-out and setting: the same measure for `CC(CO)CCNc1ncnc2c1ncn2CCC(=O)OC(C)(C)C` (configuration not stated): more than 100 µM; for `COc1ccc(-n2cnn3c(=O)c4cn[nH]c4nc23)cc1`: more than 10 µM.
`CC(C)(C)OC(=O)NC(Cc1ccc(OC(C)(C)C)cc1)C(=O)N[C@H]1CCC[C@H]1C(=O)NC(Cc1ccccc1)C(=O)N1CCCC1C(N)=O` (some centres not stated): the TGI was more than 100 µM.
In turn, `c1ccc(NN=C(c2ccccn2)c2ccccn2)nc1` came in with a TGI of more than 100 µM.
`N#Cc1[nH]c(=S)[nH]c1N`: the TGI was more than 100 µM.
Same read-out and setting: to `N#CC1=C(Nc2ccccc2)SC=C(c2ccccc2)NC1=NCc1ccccc1` belongs more than 100 µM.
Compound `COC1=CC2C(c3cc4ccccc4n3S(=O)(=O)c3ccccc3)CC1CN2C(=O)OCc1ccccc1` (configuration not stated) yielded a TGI of more than 100 µM.
The compound `CNC(=S)N=Nc1c(O)n(CN2CCOCC2)c2ccc([N+](=O)[O-])cc12` came in with a TGI of 35.3 µM.
With `COc1ccc(-c2csc(Cc3nc4ccccc4c(=O)n3-c3ccc(Cl)cc3)n2)cc1`, the TGI is more than 100 µM.
The compound `COc1ccc(NC(=O)N(C)CC2(O)CCC(C(C)(C)C)CC2)cc1` (configuration not stated) had a TGI of more than 100 µM.
The compound `CN(C)CCNC(=O)c1ccc2nc3c(nc2c1)C(=O)c1ccccc1-3` displayed a TGI of more than 100 µM.
The same measure, in the same setting: the same measure for `C/C(=N/NC(=S)Nc1ccc(Cl)cc1)c1cccc(/C(C)=N\NC(=S)Nc2ccc(Cl)cc2)n1`: 40.3 µM; for `COC(=O)C1(C(=O)OC)C/C(C)=C(/C)SCCCS1`: more than 100 µM.
Compound `CC1(C)CC(=O)C(C=NC(=O)c2ccncc2)=C(O)C1` gave a TGI of more than 100 µM.
